Source: ChEMBL document CHEMBL1156829 (Proc Natl Acad Sci U S A, 2008)

Legend:
[1] = tested on: Plasmodium falciparum; assay: NOVARTIS: Inhibition of Plasmodium falciparum W2 (drug-resistant) proliferation in erythrocyte-based infection assay; format: functional, organism-based; settings: Plasmodium falciparum, W2; read-out: EC50
[2] = tested on: Plasmodium falciparum; assay: NOVARTIS: Inhibition of Plasmodium falciparum 3D7 (drug-susceptible) proliferation in erythrocyte-based infection assay; format: functional, organism-based; settings: Plasmodium falciparum, 3D7
[3] = NOVARTIS: Cytotoxicity against human hepatocellular carcinoma cell line (Huh7); format: toxicity, cell-based, Huh-7; settings: Huh7 cells (hepatocellular carcinoma cell line)

Structure (SMILES) | EC50 [1] [nM] | EC50 [2] [nM] | CC50 [3] [nM]
C=CC1(O)CN2CCC1CC2[C@@H](O)c1ccnc2ccc(OC)cc12 (stereo partly drawn) | 264 | 105 | > 10000
Brc1ccc(Nc2nc(NCc3ccco3)c3ccccc3n2)cc1 | 192 | 196 | 7150
CCOC(=O)c1c(C)n(-c2ccccc2)c2ccc(O)cc12 | 2660 | 1700 | > 100000
O=C(CN1CCN(S(=O)(=O)c2cccc([N+](=O)[O-])c2)CC1)Nc1ccc(OCc2ccccc2)cc1 | 2650 | 3910 | > 100000
O=C(C[n+]1cc(-c2ccc(Cl)cc2)n2c1CCC2)c1ccc(C2CCCCC2)cc1 | 942 | 1310 | 35500
CCN(CC)CCCC(C)NCc1ccc(OC)c(OCc2ccccc2)c1 (stereo not drawn) | 264 | > 787 | > 10000
O=C(C1CC1)N1CCc2cc(Br)cc(S(=O)(=O)N3CCCCC3)c21 | 2640 | 8140 | > 100000
Cc1c(C(=O)N2CCC(C)CC2)sc2ncn(CC(=O)N3CCN(c4ccccn4)CC3)c(=O)c12 | 266 | > 1250 | > 10000
O=C(O)CSc1ccc(C(=O)NC2CCCCNC2=O)cn1 (stereo not drawn) | 263 | > 1490 | > 10000
CCCCCCCCCC(=O)N1CCN(C(CC)c2nc3ccccc3c(=O)n2C)CC1 (stereo not drawn) | 267 | 283 | > 10000
Clc1ccccc1CN1CCc2nc(N3CCCCC3)sc2C1 | 2630 | 594 | > 100000
C=CCN1C(=O)/C(=C\c2ccccc2)C(C(=O)OC)=C1C | 262 | 589 | > 10000
COc1ccc(C(=O)N2c3cc(C)ccc3C(Nc3ccc(C)cc3)CC2C)cc1 (stereo not drawn) | 2620 | > 12500 | > 100000
CCN1CCN(c2nc3ccccn3c(=O)c2/C=C2\SC(=S)N(C(C)C)C2=O)CC1 | 260 | 717 | > 10000
CCC(=O)NC(c1cccc([N+](=O)[O-])c1)c1ccc2cccnc2c1O (stereo not drawn) | 2600 | 3420 | > 100000
Cc1nc(NC(=N)N)nc2c(C)cccc12 | 443 | 301 | 16400
CCOc1ccc(C(=O)C[N+]2=C(CC)c3ccc(C)n3CC2)cc1 | 2190 | 2440 | 81000
COc1cccc2cc(C(=O)Nc3cccc(C(F)(F)F)c3)c(=O)oc12 | 64 | > 1250 | > 2370
Cc1cc(C)nc(NC(=N)Nc2cccc(O)c2)n1 | 2650 | 3920 | > 100000

Structure (SMILES) | EC50 [1] [nM] | EC50 [2] [nM] | CC50 [3] [nM]
CN(C)c1ccc(/C=C/C(=O)NC(=O)c2ccccc2OC(=O)c2ccccc2)cc1 | 265 | 238 | > 10000
O=C(Nc1nc(-c2ccccc2)cs1)c1ccccc1O | 643 | 1000 | 24300
CCOc1ccc(-c2cn3c(n2)sc2cc(C(=O)NCCN(CC)CC)ccc23)cc1 | 1270 | 766 | 47500
OC(COc1ccccc1CNCCN1CCCC1)CN1CCc2ccccc2C1 (stereo not drawn) | 1660 | 2200 | 63400
CCc1ccc(C(=O)Oc2ccccc2-c2nc3ccccn3c2NC(C)(C)CC(C)(C)C)cc1 | 259 | 1760 | > 10000
COC(=O)c1c(N)n(-c2ccccc2OC)c2nc3ccccc3nc12 | 2700 | > 12500 | > 100000
CN(Cc1ccsc1)C(=O)CCc1nnc(CCCc2ccccc2)o1 | 270 | > 1250 | > 10000
CCCCNC(=O)c1ccc(OC2CCN(CC3CCCCC3)CC2)c(Cl)c1 | 270 | 639 | > 10000
O=C(Nc1ccc(-c2nc3ccccc3[nH]2)cc1)c1ccc(-c2ccc(Cl)cc2)o1 | 444 | 193 | 16600
Oc1nnc(SCc2nc3ccccc3s2)n1Cc1ccco1 | 268 | > 1460 | > 10000
O=c1c2c([nH]c3ccccc13)CCCCCC2 | 2670 | 2940 | > 100000
COc1ccc2c(c1)[nH]c1c(N3CCN(C(c4ccccc4)c4ccccc4)CC3)ncnc12 | 435 | 339 | 16300
CCC(C)Nc1nc(NC(C)CC)nc(N2CCCCCC2)n1 (stereo not drawn) | 382 | 479 | 14700
Cc1ccc2[nH]c3c(NCCN(C(C)C)C(C)C)ncnc3c2c1 | 420 | 306 | 16300
CCOC(=O)N1CCC(N2C(=O)c3ccccc3C2Nc2ccc(OCC)cc2)CC1 (stereo not drawn) | 2580 | > 12500 | > 100000
CCC(c1nc2ccccc2c(=O)n1-c1ccccc1OC)N(CCc1ccccc1)C(=O)c1ccc(C)cc1 (stereo not drawn) | 174 | 418 | > 6690
O=C(C1CCN(S(=O)(=O)c2cccc3nonc23)CC1)N1CCCc2ccccc21 | 534 | > 1250 | > 10000
Cc1oc(-c2cccc(C(F)(F)F)c2)cc1C(=O)O | 267 | > 887 | > 10000
Clc1ccc(CNCCCn2ccnc2)cc1Cl | > 269 | > 1250 | > 10000

Structure (SMILES) | EC50 [1] [nM] | EC50 [2] [nM] | CC50 [3] [nM]
O=C(CCl)Nc1ccc(CN2CCCCC2)cc1 | 911 | 976 | 34100
COc1ccc(C(=O)NC(c2ccc(C)cc2)c2cc(Cl)c3cccnc3c2O)cc1 (stereo not drawn) | 2700 | 2420 | > 100000
CCOc1ccc2nc3ccc([N+](=O)[O-])cc3c(NC)c2c1 | 534 | 222 | > 10000
O=C(Cn1nc([N+](=O)[O-])nc1Br)NC1CCCCC1 | 2660 | 4510 | > 100000
COCCN1C(=O)c2ccccc2C(C(=O)Nc2cccc(C(F)(F)F)c2)C1c1cccs1 (stereo not drawn) | 2650 | 3830 | > 100000
CCCC(CCC)C(=O)Nc1ccc2c(c1)N(C(=O)CCCl)c1ccccc1CC2 | 2580 | 416 | > 100000
Cc1cc(NCCCN(C)C)c2ccccc2n1 | 1380 | 716 | 53200
COc1ccc(C2C(C(=O)c3ccccc3)=C(O)C(=O)N2c2cccc(Cl)c2)c(OC)c1 (stereo not drawn) | 2590 | > 12500 | > 100000
Cc1ccc(C)n1-c1ccc(N(C)C)cc1 | 1330 | 2930 | 50900
CCCCN1C(=O)N(c2ccccc2C)C(C)(O)CC1(C)C (stereo not drawn) | > 261 | > 1520 | > 10000
CCCCCCc1ccc(/C(C=[N+](C)C)=C\N(C)C)cc1 | 260 | 335 | > 10000
O=C(Nc1ccc2oc(-c3cccc4ccccc34)nc2c1)c1ccc([N+](=O)[O-])o1 | 2650 | 5060 | > 100000
COCCCNC(=O)c1cc(NC(=O)CCCCl)ccc1N1CCc2ccccc2C1 | 30.4 | 331 | 1130
CCOc1ccc2c(c1)cc(CN(C(C)=O)C1CCCC1)c1nnnn12 | 268 | > 1250 | > 10000
O=C(Nc1ccc(-c2cn3cccnc3n2)cc1)c1ccccc1I | 2620 | > 12500 | > 100000
CCCCn1nccc1Nc1cc(C)c(C#N)c2nc3ccccc3n12 | 2610 | 4420 | > 100000
Cc1ccc(C(OCC(C)(C)C[N+](C)(C)C)c2ccccc2)cc1 (stereo not drawn) | 629 | 265 | 23300
CCOC(=O)c1c[nH]c2c(CC)cccc2c1=O | 2650 | 1660 | > 100000
